pIC50: −log10 of the molar value.
Tested on: OVCAR-8 complex spheroid, growth inhibition
Experiment: Anticancer human tumor OVCAR-8 cell line growth inhibition [Asc];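 note: spheroids exposed to agents for 7 days before readout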;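 for viability, T/C: percent viability relative to DMSO vehicle wells taken as 100%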
Conditions: for pIC50: curve of first compound; for viability, T/C: stronger effect = lower value
How it was run: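 Complex spheroids combining tumor cells with HUVEC endothelial cells and human MSCs, at 37 degrees C, 5% CO2; agents tested alone or combined, half-log dilutions from at or near clinical Cmax, or 10 microM if Cmax unknown.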

With `Cn1ncnc1[C@H]1c2n[nH]c(=O)c3cc(F)cc(c23)N[C@@H]1c1ccc(F)cc1` + Cc1c(S(C)(=O)=O)c(-c2cc(F)cc(N3CCN(c4ccc(NS(=O)(=O)c5ccc(NC(CCN6CCC(C(=O)OCCCP(=O)(O)O)CC6)CSc6ccccc6)c(S(=O)(=O)C(F)(F)F)c5)cc4)CC3)c2)c(-c2ccc(Cl)cc2)n1C(C)C the pIC50 (second compound 0.0316 µM) was under 7.00, the pIC50 (second compound 0.1 µM) was under 7.00 and the pIC50 (second compound 0.316 µM) was under 7.00. It also gave a pIC50 (second compound 1 µM) of under 7.00, a pIC50 (second compound 3.16 µM) of under 7.00 and a pIC50 (second compound 10 µM) of under 7.00. It also gave a viability, T/C (second compound 0.0316 µM, first compound 0.000316 µM) of 96.3%, a viability, T/C (second compound 0.0316 µM, first compound 0.001 µM) of 94.8% and a viability, T/C (second compound 0.0316 µM, first compound 0.00316 µM) of 90%. For the same molecule, the viability, T/C (second compound 0.0316 µM, first compound 0.01 µM) was 103%, the viability, T/C (second compound 0.0316 µM, first compound 0.0316 µM) was 127% and the viability, T/C (second compound 0.0316 µM, first compound 0.1 µM) was 149%. For the same molecule, the viability, T/C (second compound 0.1 µM, first compound 0.000316 µM) was 103%, the viability, T/C (second compound 0.1 µM, first compound 0.001 µM) was 106% and the viability, T/C (second compound 0.1 µM, first compound 0.00316 µM) was 115%. For the same molecule, the viability, T/C (second compound 0.1 µM, first compound 0.01 µM) was 123%, the viability, T/C (second compound 0.1 µM, first compound 0.0316 µM) was 123% and the viability, T/C (second compound 0.1 µM, first compound 0.1 µM) was 155%. For the same molecule, the viability, T/C (second compound 0.316 µM, first compound 0.000316 µM) was 122%, the viability, T/C (second compound 0.316 µM, first compound 0.001 µM) was 101% and the viability, T/C (second compound 0.316 µM, first compound 0.00316 µM) was 111%. It also gave a viability, T/C (second compound 0.316 µM, first compound 0.01 µM) of 101%, a viability, T/C (second compound 0.316 µM, first compound 0.0316 µM) of 141% and a viability, T/C (second compound 0.316 µM, first compound 0.1 µM) of 158%. For the same molecule, the viability, T/C (second compound 1 µM, first compound 0.000316 µM) was 106%, the viability, T/C (second compound 1 µM, first compound 0.001 µM) was 109% and the viability, T/C (second compound 1 µM, first compound 0.00316 µM) was 106%. The viability, T/C (second compound 1 µM, first compound 0.01 µM) was 110%, the viability, T/C (second compound 1 µM, first compound 0.0316 µM) was 125% and the viability, T/C (second compound 1 µM, first compound 0.1 µM) was 160%. The viability, T/C (second compound 3.16 µM, first compound 0.000316 µM) was 130%, the viability, T/C (second compound 3.16 µM, first compound 0.001 µM) was 120% and the viability, T/C (second compound 3.16 µM, first compound 0.00316 µM) was 92.8%. The viability, T/C (second compound 3.16 µM, first compound 0.01 µM) was 115%, the viability, T/C (second compound 3.16 µM, first compound 0.0316 µM) was 138% and the viability, T/C (second compound 3.16 µM, first compound 0.1 µM) was 161%. It also gave a viability, T/C (second compound 10 µM, first compound 0.000316 µM) of 124%, a viability, T/C (second compound 10 µM, first compound 0.001 µM) of 93.1% and a viability, T/C (second compound 10 µM, first compound 0.00316 µM) of 88.3%. It also gave a viability, T/C (second compound 10 µM, first compound 0.01 µM) of 127%, a viability, T/C (second compound 10 µM, first compound 0.0316 µM) of 169% and a viability, T/C (second compound 10 µM, first compound 0.1 µM) of 164%.

`NC(=O)C(=Cn1cnc(-c2cc(C(F)(F)F)cc(C(F)(F)F)c2)n1)c1cncnc1` + CCN1C(C(=O)NC23CCC(C(=O)O)(CC2)CC3)C(c2cccc(Cl)c2F)C2(C(=O)Nc3cc(Cl)ccc32)C12CCCCC2 showed a pIC50 (second compound 0.00949 µM) of under 6.52, a pIC50 (second compound 0.03 µM) of under 6.52 and a pIC50 (second compound 0.0949 µM) of under 6.52. For the same molecule, the pIC50 (second compound 0.3 µM) was under 6.52, the pIC50 (second compound 0.949 µM) was under 6.52 and the pIC50 (second compound 3 µM) was under 6.52. For the same molecule, the viability, T/C (second compound 0.00949 µM, first compound 0.000949 µM) was 98.7%, the viability, T/C (second compound 0.00949 µM, first compound 0.003 µM) was 100% and the viability, T/C (second compound 0.00949 µM, first compound 0.00949 µM) was 106%. It also gave a viability, T/C (second compound 0.00949 µM, first compound 0.03 µM) of 102%, a viability, T/C (second compound 0.00949 µM, first compound 0.0949 µM) of 81.8% and a viability, T/C (second compound 0.00949 µM, first compound 0.3 µM) of 66.3%. For the same molecule, the viability, T/C (second compound 0.03 µM, first compound 0.000949 µM) was 96.5%, the viability, T/C (second compound 0.03 µM, first compound 0.003 µM) was 90.1% and the viability, T/C (second compound 0.03 µM, first compound 0.00949 µM) was 111%. It also gave a viability, T/C (second compound 0.03 µM, first compound 0.03 µM) of 89.5%, a viability, T/C (second compound 0.03 µM, first compound 0.0949 µM) of 82.5% and a viability, T/C (second compound 0.03 µM, first compound 0.3 µM) of 66.9%. For the same molecule, the viability, T/C (second compound 0.0949 µM, first compound 0.000949 µM) was 88.9%, the viability, T/C (second compound 0.0949 µM, first compound 0.003 µM) was 102% and the viability, T/C (second compound 0.0949 µM, first compound 0.00949 µM) was 102%. For the same molecule, the viability, T/C (second compound 0.0949 µM, first compound 0.03 µM) was 105%, the viability, T/C (second compound 0.0949 µM, first compound 0.0949 µM) was 80.3% and the viability, T/C (second compound 0.0949 µM, first compound 0.3 µM) was 65.9%. It also gave a viability, T/C (second compound 0.3 µM, first compound 0.000949 µM) of 93.2%, a viability, T/C (second compound 0.3 µM, first compound 0.003 µM) of 85.1% and a viability, T/C (second compound 0.3 µM, first compound 0.00949 µM) of 94%. The viability, T/C (second compound 0.3 µM, first compound 0.03 µM) was 101%, the viability, T/C (second compound 0.3 µM, first compound 0.0949 µM) was 81% and the viability, T/C (second compound 0.3 µM, first compound 0.3 µM) was 68.7%. For the same molecule, the viability, T/C (second compound 0.949 µM, first compound 0.000949 µM) was 88.1%, the viability, T/C (second compound 0.949 µM, first compound 0.003 µM) was 103% and the viability, T/C (second compound 0.949 µM, first compound 0.00949 µM) was 102%. It also gave a viability, T/C (second compound 0.949 µM, first compound 0.03 µM) of 122%, a viability, T/C (second compound 0.949 µM, first compound 0.0949 µM) of 73.4% and a viability, T/C (second compound 0.949 µM, first compound 0.3 µM) of 60%. For the same molecule, the viability, T/C (second compound 3 µM, first compound 0.000949 µM) was 116%, the viability, T/C (second compound 3 µM, first compound 0.003 µM) was 109% and the viability, T/C (second compound 3 µM, first compound 0.00949 µM) was 112%. The viability, T/C (second compound 3 µM, first compound 0.03 µM) was 115%, the viability, T/C (second compound 3 µM, first compound 0.0949 µM) was 80.5% and the viability, T/C (second compound 3 µM, first compound 0.3 µM) was 59.8%.

Work on `NC(=O)C(=Cn1cnc(-c2cc(C(F)(F)F)cc(C(F)(F)F)c2)n1)c1cncnc1` + Cc1c(S(C)(=O)=O)c(-c2cc(F)cc(N3CCN(c4ccc(NS(=O)(=O)c5ccc(NC(CCN6CCC(C(=O)OCCCP(=O)(O)O)CC6)CSc6ccccc6)c(S(=O)(=O)C(F)(F)F)c5)cc4)CC3)c2)c(-c2ccc(Cl)cc2)n1C(C)C yielded a pIC50 (second compound 0.0316 µM) of under 6.52, a pIC50 (second compound 0.1 µM) of under 6.52 and a pIC50 (second compound 0.316 µM) of 6.66. The pIC50 (second compound 1 µM) was 6.81, the pIC50 (second compound 3.16 µM) was 6.88 and the pIC50 (second compound 10 µM) was 6.97. The viability, T/C (second compound 0.0316 µM, first compound 0.000949 µM) was 107%, the viability, T/C (second compound 0.0316 µM, first compound 0.003 µM) was 97.1% and the viability, T/C (second compound 0.0316 µM, first compound 0.00949 µM) was 103%. For the same molecule, the viability, T/C (second compound 0.0316 µM, first compound 0.03 µM) was 114%, the viability, T/C (second compound 0.0316 µM, first compound 0.0949 µM) was 89.3% and the viability, T/C (second compound 0.0316 µM, first compound 0.3 µM) was 55.4%. For the same molecule, the viability, T/C (second compound 0.1 µM, first compound 0.000949 µM) was 103%, the viability, T/C (second compound 0.1 µM, first compound 0.003 µM) was 92.6% and the viability, T/C (second compound 0.1 µM, first compound 0.00949 µM) was 93.5%. The viability, T/C (second compound 0.1 µM, first compound 0.03 µM) was 102%, the viability, T/C (second compound 0.1 µM, first compound 0.0949 µM) was 90.4% and the viability, T/C (second compound 0.1 µM, first compound 0.3 µM) was 57.6%. It also gave a viability, T/C (second compound 0.316 µM, first compound 0.000949 µM) of 115%, a viability, T/C (second compound 0.316 µM, first compound 0.003 µM) of 112% and a viability, T/C (second compound 0.316 µM, first compound 0.00949 µM) of 101%. The viability, T/C (second compound 0.316 µM, first compound 0.03 µM) was 107%, the viability, T/C (second compound 0.316 µM, first compound 0.0949 µM) was 90.4% and the viability, T/C (second compound 0.316 µM, first compound 0.3 µM) was 34.8%. For the same molecule, the viability, T/C (second compound 1 µM, first compound 0.000949 µM) was 119%, the viability, T/C (second compound 1 µM, first compound 0.003 µM) was 111% and the viability, T/C (second compound 1 µM, first compound 0.00949 µM) was 114%. The viability, T/C (second compound 1 µM, first compound 0.03 µM) was 116%, the viability, T/C (second compound 1 µM, first compound 0.0949 µM) was 73.8% and the viability, T/C (second compound 1 µM, first compound 0.3 µM) was 18.1%. It also gave a viability, T/C (second compound 3.16 µM, first compound 0.000949 µM) of 109%, a viability, T/C (second compound 3.16 µM, first compound 0.003 µM) of 104% and a viability, T/C (second compound 3.16 µM, first compound 0.00949 µM) of 121%. For the same molecule, the viability, T/C (second compound 3.16 µM, first compound 0.03 µM) was 111%, the viability, T/C (second compound 3.16 µM, first compound 0.0949 µM) was 66.7% and the viability, T/C (second compound 3.16 µM, first compound 0.3 µM) was 6.92%. For the same molecule, the viability, T/C (second compound 10 µM, first compound 0.000949 µM) was 117%, the viability, T/C (second compound 10 µM, first compound 0.003 µM) was 115% and the viability, T/C (second compound 10 µM, first compound 0.00949 µM) was 132%. The viability, T/C (second compound 10 µM, first compound 0.03 µM) was 127%, the viability, T/C (second compound 10 µM, first compound 0.0949 µM) was 55.8% and the viability, T/C (second compound 10 µM, first compound 0.3 µM) was 4.41%.
